In patent US20260130925A1, “METHODS FOR TREATING CANCER” (Genesis Molecular AI, Inc., priority 2022, published 2026):

Columns and labels:
[1] = molecular target: T1, PI3Kα H1047R in T47D cells (Homo sapiens, UniProt P42336, H1047R); test: PI3Kα cellular assay: T47D pAKT S473 HTRF; format: cell-based
T1 construct: endogenous in cells; host or cells: T47D
Method: PI3Kα cellular assay experimental procedure: SKBR3 or T47D cells are seeded in DMEM containing 10% FBS at 25 k cells/well into 96-well cell culture format. Cells are incubated overnight at 37° C. in a 5% CO2 incubator and the following day cell media is aspirated, adherent cells are washed 1× with room temperature PBS prior to serum-free media application. Cells are returned to 37° C. 5% CO2 incubator and incubated a further 16 hrs. Compounds are added to serum starved adherent cells with a top dose of 10,000 nM and 3× multiple dose reductions for a minimum dose of 0.5 nM diluted in DMSO. Cell/compound incubation continues for 1 hr in a 37° C., 5% CO2 incubator prior to 10 minute PIK3CA stimulation with 20 ng/ml EGF. Cells treated with 0.1% DMSO and 20 ng/mL EGF are employed as negative control, cells treated with 10 uM Alpelisib and 20 ng/mL EGF are employed as a positive control. After 10 mins, plates are removed from incubator and cells are lysed with buffer and shaking 45 minutes. 20 μL of lysate is transferred to an opti-384 plate and 2.5 μl of Phospho-AKT d2 antibody with 2.5 μl of Phospho-AKT Eu Cryptate solution in the detection buffer are added to each well. 384 well plate is left overnight at room temperature before reading HTRF on an Envision plate reader.

PI3K H1047R = PI3K H1047R (Homo sapiens, UniProt P42336, H1047R); test: PI3K H1047R ADP-Glo (PI/PS); format: biochemical; set-up: PI3K H1047R ADP-Glo (PI/PS) IC50: H1047R Selectivity: reference not given here
Sequence of PI3K H1047R (P42336 whole entry H1047R): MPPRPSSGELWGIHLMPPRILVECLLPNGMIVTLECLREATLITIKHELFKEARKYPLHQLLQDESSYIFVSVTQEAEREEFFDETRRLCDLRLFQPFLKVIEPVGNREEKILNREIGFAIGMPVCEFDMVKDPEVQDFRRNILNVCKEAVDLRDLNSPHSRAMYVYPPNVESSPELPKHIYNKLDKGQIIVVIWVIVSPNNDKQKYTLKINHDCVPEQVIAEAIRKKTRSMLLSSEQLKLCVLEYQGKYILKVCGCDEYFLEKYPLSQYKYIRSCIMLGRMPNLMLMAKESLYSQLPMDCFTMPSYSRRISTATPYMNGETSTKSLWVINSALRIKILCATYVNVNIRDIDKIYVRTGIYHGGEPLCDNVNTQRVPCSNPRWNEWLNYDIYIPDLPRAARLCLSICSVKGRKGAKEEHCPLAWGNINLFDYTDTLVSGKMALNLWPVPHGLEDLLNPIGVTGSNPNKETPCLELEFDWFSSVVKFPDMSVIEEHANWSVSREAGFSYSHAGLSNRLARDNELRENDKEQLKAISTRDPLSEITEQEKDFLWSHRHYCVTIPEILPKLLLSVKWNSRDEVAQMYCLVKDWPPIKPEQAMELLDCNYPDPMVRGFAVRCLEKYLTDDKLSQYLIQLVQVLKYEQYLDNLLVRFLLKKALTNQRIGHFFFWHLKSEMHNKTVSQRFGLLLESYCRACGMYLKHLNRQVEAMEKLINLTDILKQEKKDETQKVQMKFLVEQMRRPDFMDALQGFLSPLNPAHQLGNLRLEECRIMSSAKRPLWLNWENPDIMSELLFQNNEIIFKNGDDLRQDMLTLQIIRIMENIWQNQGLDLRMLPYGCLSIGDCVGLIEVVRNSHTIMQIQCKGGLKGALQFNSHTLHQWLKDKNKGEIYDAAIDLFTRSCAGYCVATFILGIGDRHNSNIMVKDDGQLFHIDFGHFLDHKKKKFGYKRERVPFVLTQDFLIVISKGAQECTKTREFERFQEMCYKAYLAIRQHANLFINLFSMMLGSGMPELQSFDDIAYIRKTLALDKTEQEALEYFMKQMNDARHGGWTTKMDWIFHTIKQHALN
Sequence of PI3K H1047R (P27986 whole entry partner): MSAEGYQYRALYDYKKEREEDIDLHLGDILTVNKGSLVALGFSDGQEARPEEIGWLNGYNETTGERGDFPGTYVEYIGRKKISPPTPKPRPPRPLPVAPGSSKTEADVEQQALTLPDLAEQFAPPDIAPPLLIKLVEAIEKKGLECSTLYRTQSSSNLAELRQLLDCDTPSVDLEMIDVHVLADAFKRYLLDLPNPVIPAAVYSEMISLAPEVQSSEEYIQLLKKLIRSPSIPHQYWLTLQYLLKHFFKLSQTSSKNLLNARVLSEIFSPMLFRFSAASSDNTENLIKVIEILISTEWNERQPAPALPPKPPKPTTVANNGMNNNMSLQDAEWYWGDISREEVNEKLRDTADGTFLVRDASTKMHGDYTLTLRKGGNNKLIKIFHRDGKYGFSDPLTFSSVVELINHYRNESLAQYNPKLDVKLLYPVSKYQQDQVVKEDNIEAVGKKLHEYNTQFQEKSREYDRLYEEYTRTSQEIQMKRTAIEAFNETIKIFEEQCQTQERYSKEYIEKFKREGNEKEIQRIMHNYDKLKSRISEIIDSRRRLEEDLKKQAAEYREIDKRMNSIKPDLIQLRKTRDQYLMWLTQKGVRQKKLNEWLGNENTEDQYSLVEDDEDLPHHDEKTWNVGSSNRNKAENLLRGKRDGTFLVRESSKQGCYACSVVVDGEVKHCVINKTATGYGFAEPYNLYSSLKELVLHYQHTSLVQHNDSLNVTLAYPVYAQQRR

T1 sequence (P42336 whole entry H1047R): as the sequence (P42336 whole entry H1047R) above
T1 sequence (P27986 whole entry partner): as the sequence (P27986 whole entry partner) above

- T47D pAKT S473 HTRF IC50 (H1047R): T47D (H1047R) selectivity over SKBR3 (WT) ([1]; T47D (H1047R) versus SKBR3 (WT) cells): A (A denotes >20-fold)
- IC50 ([1]; T47D cells (H1047R), serum starved, 1 hr compound, 20 ng/ml EGF 10 min): < 750 nM
- PI3K H1047R ADP-Glo (PI/PS) IC50: H1047R Selectivity (PI3K H1047R; H1047R selectivity): A (A denotes >20-fold)
- IC50 (PI3K H1047R; PI/PS substrate): < 1000 nM
Compound: Cc1cc([C@@H](C)Nc2ccccc2C(=O)O)c2nc(-c3ccc(F)cc3)n(C)c(=O)c2c1 (single isomer, unassigned) [Compound 32]
